In the supplement of paper PMC10307832:

Experiments:
Experiment in all cases: relative viability (nuclei count vs DMSO), 5 days (fraction); higher = more cells survive
Omipalisib + OSI-027 = compound: COc1ncc(-c2ccc3nccc(-c4ccnnc4)c3c2)cc1NS(=O)(=O)c1ccc(F)cc1F [Omipalisib] + COc1cccc2cc(-c3nc([C@H]4CC[C@H](C(=O)O)CC4)n4ncnc(N)c34)[nH]c12 [OSI-027] (partner 0.5 µM)
Outline: (§1)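 Five library-drug doses in √10 steps were combined with a fixed anchor-drug dose, or a single drug was given alone, by pin tool to lung cancer cell lines in 1536-well plates the day after seeding. Nuclei were stained and counted after 5 days. Relative viability is the nuclei count in treated wells over that in vehicle wells, taken as the median of duplicate plates.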

Omipalisib + Pemetrexed = compound: COc1ncc(-c2ccc3nccc(-c4ccnnc4)c3c2)cc1NS(=O)(=O)c1ccc(F)cc1F [Omipalisib] + Nc1nc2[nH]cc(CCc3ccc(C(=O)N[C@@H](CCC(=O)O)C(=O)O)cc3)c2c(=O)[nH]1 [Pemetrexed] (partner 0.2 µM)
Outline: as §1

Omipalisib + Navitoclax = compound: COc1ncc(-c2ccc3nccc(-c4ccnnc4)c3c2)cc1NS(=O)(=O)c1ccc(F)cc1F [Omipalisib] + CC1(C)CCC(c2ccc(Cl)cc2)=C(CN2CCN(c3ccc(C(=O)NS(=O)(=O)c4ccc(N[C@H](CCN5CCOCC5)CSc5ccccc5)c(S(=O)(=O)C(F)(F)F)c4)cc3)CC2)C1 [Navitoclax] (partner 0.5 µM)
Outline: as §1

Omipalisib + Alpelisib = compound: COc1ncc(-c2ccc3nccc(-c4ccnnc4)c3c2)cc1NS(=O)(=O)c1ccc(F)cc1F [Omipalisib] + Cc1nc(NC(=O)N2CCC[C@H]2C(N)=O)sc1-c1ccnc(C(C)(C)C(F)(F)F)c1 [Alpelisib] (partner 2 µM)
Outline: as §1

Omipalisib + Luminespib = compound: COc1ncc(-c2ccc3nccc(-c4ccnnc4)c3c2)cc1NS(=O)(=O)c1ccc(F)cc1F [Omipalisib] + CCNC(=O)c1noc(-c2cc(C(C)C)c(O)cc2O)c1-c1ccc(CN2CCOCC2)cc1 [Luminespib] (partner 0.01 µM)
Outline: as §1

Omipalisib + Olaparib = compound: COc1ncc(-c2ccc3nccc(-c4ccnnc4)c3c2)cc1NS(=O)(=O)c1ccc(F)cc1F [Omipalisib] + O=C(c1cc(Cc2n[nH]c(=O)c3ccccc23)ccc1F)N1CCN(C(=O)C2CC2)CC1 [Olaparib] (partner 8 µM)
Outline: as §1

Cell Line	relative viability (Omipalisib + OSI-027; first compound 0.0003 µM)	relative viability (Omipalisib + OSI-027; first compound 0.003 µM)	relative viability (Omipalisib + OSI-027; first compound 0.03 µM)	relative viability (Omipalisib + Pemetrexed; first compound 0.0003 µM)	relative viability (Omipalisib + Pemetrexed; first compound 0.003 µM)	relative viability (Omipalisib + Pemetrexed; first compound 0.03 µM)	relative viability (Omipalisib + Navitoclax; first compound 0.0003 µM)	relative viability (Omipalisib + Navitoclax; first compound 0.003 µM)	relative viability (Omipalisib + Navitoclax; first compound 0.03 µM)	relative viability (Omipalisib + Alpelisib; first compound 0.0003 µM)	relative viability (Omipalisib + Alpelisib; first compound 0.003 µM)	relative viability (Omipalisib + Alpelisib; first compound 0.03 µM)	relative viability (Omipalisib + Luminespib; first compound 0.0003 µM)	relative viability (Omipalisib + Luminespib; first compound 0.003 µM)	relative viability (Omipalisib + Luminespib; first compound 0.03 µM)	relative viability (Omipalisib + Olaparib; first compound 0.0003 µM)	relative viability (Omipalisib + Olaparib; first compound 0.003 µM)	relative viability (Omipalisib + Olaparib; first compound 0.03 µM)
NCI-H1355	0.377	0.238	0.237	1.01	0.868	0.52	0.931	0.538	0.343	0.716	0.55	0.336	0.637	0.579	0.273	0.731	0.52	0.278
NCI-H2085	0.776	0.349	0.315	0.986	0.855	0.406	1.12	0.951	0.509	1.06	0.787	0.36	0.386	0.352	0.291	0.829	0.713	0.303
SK-MES-1	0.508	0.252	0.29	0.994	0.744	0.376	1.21	0.836	0.464	0.847	0.66	0.458	0.635	0.421	0.269	0.674	0.52	0.26
SW 1573	0.397	0.371	0.225	0.568	0.549	0.366	0.921	0.745	0.475	0.642	0.511	0.43	0.208	0.198	0.157	0.319	0.332	0.203
BEN	0.311	0.271	0.291	0.694	0.581	0.569	0.0683	0.0526	0.0581	0.781	0.58	0.585	0.274	0.276	0.288	1.01	0.769	0.607
ChaGo-K-1	0.557	0.374	0.421	0.273	0.254	0.255	0.762	0.686	0.945	–	–	–	0.615	0.593	0.503	0.455	0.38	0.399
EKVX	0.612	0.371	0.256	0.491	0.437	0.264	0.979	0.773	0.48	0.85	0.72	0.397	0.859	0.717	0.423	0.912	0.734	0.39
HARA	0.47	0.19	0.161	0.274	0.272	0.21	1.1	1.19	0.733	0.769	0.704	0.434	0.605	0.621	0.0924	0.699	0.512	0.214
PC-14	0.761	0.529	0.435	0.151	0.155	0.161	1.02	1.07	0.923	0.997	0.955	0.876	0.154	0.143	0.16	0.343	0.404	0.42
NCI-H520	0.235	0.214	0.203	0.58	0.433	0.184	0.972	0.714	0.292	0.802	0.608	0.292	0.208	0.232	0.212	0.295	0.294	0.139
HCC-78	0.37	0.35	0.288	0.88	0.927	0.922	0.68	0.466	0.193	0.297	0.296	0.193	–	–	–	0.665	0.542	0.298
COR-L23	0.786	0.59	0.483	0.2	0.2	0.197	1.15	0.778	0.432	0.879	0.801	0.431	0.616	0.608	0.277	0.34	0.301	0.265
NCI-H358	0.595	0.473	0.16	0.182	0.164	0.131	–	–	–	0.963	0.594	0.524	0.325	0.221	0.0986	0.544	0.38	0.324
SW 900	0.573	0.495	0.306	0.508	0.456	0.487	–	–	–	–	–	–	0.189	0.171	0.166	0.862	0.544	0.417
NCI-H2342	0.569	0.516	0.467	0.69	0.568	0.451	–	–	–	–	–	–	0.622	0.45	0.446	0.411	0.376	0.239
NCI-H661	0.661	0.582	0.344	0.925	0.9	0.761	–	–	–	0.804	0.612	0.478	0.938	1.01	0.833	0.744	0.659	0.604
NCI-H1650	0.717	0.413	0.259	0.37	0.38	0.322	1.18	1.05	0.409	–	–	–	0.179	0.182	0.169	0.774	0.807	0.576
NCI-H727	0.596	0.439	0.393	–	–	–	0.458	0.229	0.152	0.594	0.445	0.5	0.35	0.281	0.395	0.754	0.612	0.598
HCC-366	1.18	0.35	0.203	0.214	0.257	0.171	1.03	0.341	0.12	0.352	0.182	0.103	–	–	–	0.327	0.137	0.0831
